Test results published in patent publication US9880171B2, “iASPP phosphorylation and metastatic potential” (LUDWIG INSTITUTE FOR CANCER RESEARCH LTD., priority 2012, dated 2018).

Columns and labels:
[1] = tested on: iASPP modification in H1299 cells; experiment: nocodazole-induced iASPP modification in H1299 cells, G2/M kinase inhibitor panel (immunoblotting); assay type: cell-based, human; settings: panel of 15 G2/M kinase inhibitors, 2-10 μM, 10 μM nocodazole overnight
Protocol: FIG. 12. […] FIG. 12A. […] FIG. 12B. […] FIG. 12C.
FIG. 13. FIG. 13A. […] FIG. 13B.
FIG. 20. […] FIG. 20A. […] Bar=20 μm.
For WB, cells were lysed in buffer containing 8 M urea, 1 M thiourea, 0.5% CHAPS, 50 mM DTT, and 24 mM spermine. A total of 40 μg of protein extract was loaded per lane into SDS-polyacrylamide gels. Gels were transferred onto nitrocellulose membrane (Protran) and the resulting blots incubated first with primary antibody overnight at 4° C. and then with the appropriate secondary horseradish peroxidize-conjugated antibody (Dako). The results were visualized by enhanced chemiluminescent detection (Amersham Biosciences) using X-ray film (Fujifilm).

B16 melanoma cells = experiment: apoptosis by Sub-G1 FACS analysis, Example 10, B16 cells; assay type: cell-based, mouse
Protocol: (§1) FIG. 20. Restoring p53 by inhibiting mdm2 and iASPP suppresses melanoma growth in vitro and in vivo. FIG. 20A. H1299 cells were treated with DMSO or 10 μM nocodazole in the presence or absence of 2 or 10 μM of mitosis-related kinase inhibitors as indicated. […] FIG. 20B. Left panel: representative p53 level after Nutlin3 treatment for 24 hours in a variety of cells. Right bar graphs show the sub-G1 proportion of WM278 after treatment as that described in FIG. 19B (in upper panel, 10 μM and 20 μM Nutlin3 were used in parallel for comparison). From left to right of the upper right bar graph of FIG. 20B, the bars correspond to DMSO, Nut and JNJ+Nut, respectively. From left to right of the bottom bar graph of FIG. 20B, the bars correspond to DMSO, JNJ, Nut and JNJ+Nut, respectively. FIG. 20C. Me300, SK-MEL37, and B16 cells were treated as above (For B16 panel, 10 μM Nutlin3 was used) and sub-G1 proportion was analyzed. In (B) and (C), the bar graphs (mean±SD) were derived from three independent experiments. *p<0.05. FIG. 20D. Left panel: untreated B16 cells were subcutaneously injected into mice at day 1. […] Compound administration and tumor size measurement were repeated every two days from day 7 onwards. Bar graphs are shown as mean±SD (*p<0.05, n=6). FIG. 20E. […]
FIG. 22. […] Me300, SK-MEL37, and B16 cells were treated as described herein and sub-G1 cells were analyzed as described herein.

[2] = tested on: iASPP phosphorylated at ser 113; experiment: phospho-ser113 iASPP western blot in nocodazole-treated U2OS cells; assay type: cell-based, human; settings: nocodazole 1 μM 16 hours, 0.5 μM JNJ-7706621
Protocol: For the floating and adherent cells, the rounded (mitotic rich) cells were separated from the adherent cells after 24 hours treatment with nocodazole. Lysates were separated on a 6% SDS PAGE gel and proteins analysed by conventional western blotting. iASPP phosphor-[…] was detected using the antibody from rabbit 42310 as described in FIG. 23A, and total iASPP was detected by re-probing the blot with antibody LX049.3. Nucleolin was used as a loading control. […] Consistent with enhanced iASPP phosphorylation in nocodazole arrested mitotic cells, enhanced iASPP phosphorylation on ser 113 was also observed in the floating cells, which are mostly mitotic cells, and not in adherent cells (FIG. 23B). Total iASPP was detected by re-probing the blot with antibody LX049.3. Additionally, the specific binding of iASPP antibody (42310) to phosphorylated ser 113 were evaluated by determining the failure of iASPP antibody (42310) to bind when the protein is not phosphorylated at ser 113. Since CDK kinase phosphorylates iASPP at ser 113, CDK inhibitor JNJ-7706621 was used to treat human U2OS cells. […] Western blotting was carried out as described in FIG. 23B using an 8% SDS PAGE gel. When compared to untreated cells, binding of phosphor-ser 113 specific […] antibody was not observed in the presence 0.5 μM JNJ-7706621 (FIG. 23C). Total iASPP was detected by re-probing the blot with antibody LX049.3.

[3] = tested on: WM278, Me300 and SK-MEL37 melanoma cell lines; experiment: p53-dependent apoptosis assay (subG1 DNA content, PI/FACS), Example 8; assay type: cell-based, human; settings: 0.3 μM K00616a, 20 μM nutlin3, 1 μM PLX4032, agent alone, 72 hours
Protocol: (§2) Cells were transfected with siRNA as shown and pre-seeded on 6 well plates ON, 0.3 μM cyclin B1/cdk1 inhibitors K00616a were then added for 48 hours to block iASPP modification. Cells were then treated with 0.3 μM K00616a, 20 μM nutlin3, or combinations of these drugs for another 72 hours. Cells were collected and cell cycle status, growth potential, and protein expression pattern were then determined by PI staining/FACS analysis, colony formation assay, and WB, respectively. […] Cells were pre-seeded on 6 well plates for overnight, 0.3 μM cyclin B1/cdk1 inhibitors K00616a were then added for 48 hours to block iASPP modification. Cells were then treated with 0.3 μM K00616a, 20 μM nutlin3, 1 μM PLX4032, or combinations of these drug for another 72 hours. Cells were collected and cell cycle status, growth potential, and protein expression pattern were then determined by PI staining/FACS analysis, colony formation assay, and WB, respectively.
Cells were harvested, washed and fixed in ice-cold 70% EtOH. […] After 30 min RT incubation cells were analyzed by flow cytometry.
WM278 and Me300 also express wild type p53, whereas SK-MEL37 expresses mutant p53. […] Wild type p53 function was measured by a p53-dependent apoptosis assay, detecting the percentage of cells containing subG1 DNA content and growth suppression in a clonogenic survival assay.

[4] = tested on: p53 expression in B16 cells; experiment: p53 level after Nutlin3 treatment, B16 cells; assay type: cell-based, mouse
Protocol: as §1, with “20E. Lower panels show representative images of isolated tumors. Right panel: representative H & E staining in B16 tumor section. Bar=20 μm.” for “20E.”

[5] = tested on: WM278, Me300 and SK-MEL37 melanoma cell lines; experiment: clonogenic survival / colony formation assay, Example 8
Protocol: as §2
After drugs treatment, cells were digested, counted, and seed in 6-well plates (100, 1 000, 10 000 cells/well). […]
The ability of K00616a to reactivate wild type p53 function in melanoma cells was tested in three melanoma cell lines that all express B-RAFV600E. […] Wild type p53 function was measured by a p53-dependent apoptosis assay, detecting the percentage of cells containing subG1 DNA content and growth suppression in a clonogenic survival assay.

Row | Compound | prevention of nocodazole-induced iASPP modification [1] | increase in Nutlin3-induced apoptosis (B16 melanoma cells) | binding of phosphor-ser 113 specific anti-iASPP antibody (iASPP ser 113 phosphorylation) [2] | apoptotic cell death (subG1) [3] | optimal concentration of Nutlin3 to induce maximal p53 expression [4] | growth suppression (colonies) ([5]; WM278, Me300 and SK-MEL37, agent alone) | effect on the growth suppression effects of PLX4032 ([5]; added alone to PLX4032)
1 | Nc1nc(Nc2ccc(S(N)(=O)=O)cc2)nn1C(=O)c1c(F)cccc1F [JNJ-7706621] | most potent inhibitor of iASPP modification | 3-4 fold | not observed | – | – | – | –
2 | COc1ccc(C2=N[C@@H](c3ccc(Cl)cc3)[C@@H](c3ccc(Cl)cc3)N2C(=O)N2CCNC(=O)C2)c(OC(C)C)c1 [Nutlin3] | – | – | – | very low rates of apoptotic cell death | 10 µM | limited | minimal effect
